Measured values: patent US5710130A, “Antithrombotic agents” (Eli Lilly and Company, priority 1995, dated 1998)
Structures can show the parent of a compound that is named as a salt.

Tests used:
Assay type in all cases: biochemical
[1] = system: human plasma; experiment: Human plasma anticoagulation, thrombin time (TT); conditions: concentration required to double thrombin time, linear extrapolation
Method: (§1) Dog plasma and rat plasma is obtained from conscious mixed-breed hounds (either sex, Hazelton-LRE, Kalamazoo, Mich., U.S.A.) or from anesthetized male Sprague-Dawley rats (Harlan Sprague-Dawley, Inc., Indianapolis, Ind., U.S.A.) by venipuncture into 3.8 percent citrate. Fibrinogen is prepared from in-date ACD human blood as the fraction I-2 according to previous procedures and specifications. […] Human fibrinogen is also purchased as 98 percent pure/plasmin free from American Diagnostica, Greenwich, Conn. Coagulation reagents ACTIN, Thromboplastin, and Human plasma are from Baxter Healthcare Corp., Dade Division, Miami, Fla. Bovine thrombin from Parke-Davis ([…], Mich.) is used for coagulation assays in plasma.
(§2) Coagulation assay procedures are as previously described. […] A CoAScreener coagulation instrument (American LABor, Inc.) is used for all coagulation assay measurements. The prothrombin time (PT) is measured by adding 0.05 mL saline and 0.05 mL Thromboplastin-C reagent to 0.05 mL test plasma. The activated partial thromboplastin time (APTT) is measured by incubation of 0.05 mL test plasma with 0.05 mL Actin reagent for 120 seconds followed by 0.05 mL CaCl2 (0.02M). The thrombin time (TT) is measured by adding 0.05 mL saline and 0.05 mL thrombin (10 NIH units/mL) to 0.05 mL test plasma. The compounds of Formula I are added to human or animal plasma over a wide range of concentrations to determine prolongation effects on the APTT, PT, and TT assays. Linear extrapolations are performed to estimate the concentrations required to double the clotting time for each assay.

[2] = molecular target: Human Thrombin (Homo sapiens, UniProt P00734); experiment: Inhibition of thrombin amidase activity (Kass), chromogenic substrate; conditions: mean Kass over a range of concentrations; substrate N-benzoyl-Phe-Val-Arg-p-nitroanilide
[3] = system: human plasma; experiment: Human plasma anticoagulation, prothrombin time (PT); conditions: concentration required to double PT, linear extrapolation
Method: as §1, §2

[4] = system: human plasma; experiment: Human plasma anticoagulation, activated partial thromboplastin time (APTT); conditions: concentration required to double APTT, linear extrapolation
Method: as §1, §2

| Compound | Human Plasma Anticoagulation 2x Clotting time TT [1] | Kass Human Thrombin [2] | Human Plasma Anticoagulation 2x Clotting time PT [3] | Human Plasma Anticoagulation 2x Clotting time APTT [4] |
| --- | --- | --- | --- | --- |
| Cl.NC(N)=NC/C=C/CNC(=O)[C@@H]1CCCN1C(=O)[C@H](N)Cc1ccccc1 (relative stereo) [Example 8, D-Phe-Pro-NHCH2 -trans-CH=CHCH2 NHC(NH)NH2.HCl] | 130 ng/mL | 5.3 × 10^6 (L/mole) |  |  |
| Cl.NC[C@H]1CC[C@H](CNC(=O)[C@@H]2CCCN2C(=O)[C@H](N)Cc2ccccc2)CC1 (relative stereo) [Example 12, D-Phe-Pro-NHCH2 -trans-4-(aminomethyl)cyclohexane.HCl] | 1,700 ng/mL | 0.44 × 10^6 (L/mole) |  |  |
| CCS(=O)(=O)N[C@H](CC1CCCCC1)C(=O)N1CCC[C@H]1C(=O)NCCCCN=C(N)N.Cl [Example 2, EtSO2 -D-Cha-Pro-Agm.HCl] | 170 ng/mL | 4.4 × 10^6 (L/mole) |  |  |
| CCOC(=O)N[C@H](Cc1ccccc1)C(=O)N1CCC[C@H]1C(=O)NCCCCN=C(N)N.Cl [Example 3, EtOCO-D-Phe-Pro-Agm.HCl] | 590 ng/mL | 2.1 × 10^6 (L/mole) |  |  |
| Cl.NCc1cccc(CNC(=O)[C@@H]2CCCN2C(=O)[C@H](N)Cc2ccccc2)c1 [Example 11, D-Phe-Pro-m-NHCH2 C6 H4 CH2 NH2.HCl] | 8,800 ng/mL | 0.064 × 10^6 (L/mole) |  |  |
| Cl.Nc1ccc(CCNC(=O)[C@@H]2CCCN2C(=O)[C@H](N)Cc2ccccc2)cc1 [Example 14, D-Phe-Pro-p-NHCH2 CH2 C6 H4 NH2.HCl] | 21,000 ng/mL | 0.021 × 10^6 (L/mole) |  |  |
| Cl.N=C(N)c1cccc(CNC(=O)[C@@H]2CCCN2C(=O)[C@H](N)Cc2ccccc2)c1 [Example 16, D-Phe-Pro-m-NHCH2 C6 H4 C(NH)NH2.0.75HCl] | 650 ng/mL | 0.97 × 10^6 (L/mole) | 8,500 ng/mL | 8,600 ng/mL |
| N=C(N)c1ccc(CNC(=O)[C@@H]2CCCN2C(=O)[C@H]2C[C@H]3CCCC[C@H]3CN2)cc1 [Example 19, D-3-Piq-Pro-p-NHCH2 C6 H4 C(NH)NH2.3HCl] | 58 ng/mL | 11 × 10^6 (L/mole) | 540 ng/mL | 300 ng/mL |
| CCS(=O)(=O)N[C@H](Cc1ccccc1)C(=O)N1CCC[C@H]1C(=O)NCCc1cccc(C(=N)N)c1.Cl [Example 27, EtSO2 -D-Phe-Pro-m-NHCH2 CH2 -C6 H4 C(=NH)NH2.HCl] |  | 0.29 × 10^6 (L/mole) | 27,000 ng/mL |  |
| Cl.Cl.N=C(N)c1ccc(CCNC(=O)[C@@H]2CCCN2C(=O)[C@@H]2NCC[C@@H]3CCCC[C@@H]32)cc1 [Example 28, D-1-Piq-pro-p-NHCH2 CH2 -C6 H4 C(=NH)NH2.2HCl] |  | 0.95 × 10^6 (L/mole) | 8,300 ng/mL | 8,100 ng/mL |
| Cl.Cl.N=C(N)c1cccc(CCNC(=O)[C@@H]2CCCN2C(=O)[C@@H]2NCC[C@@H]3CCCC[C@@H]32)c1 [Example 29, D-1-Piq-Pro-m-NHCH2 CH2 -C6 H4 C(=NH )NH2.2HCl] |  | 0.76 × 10^6 (L/mole) | 15,000 ng/mL | 9,800 ng/mL |
| Cl.N=C(N)c1ccc(CCCNC(=O)C2CCCN2C(=O)C2NCCC3CCCCC32)cc1 (stereo not drawn) [Example 32, 1-Piq-Pro-p-NHCH2 CH2 CH2 -C6 H4 C(=NH)NH2.2HCl] | 3,100 ng/mL | 0.13 × 10^6 (L/mole) |  |  |
| Cl.O=C(O)CNC(CC1CCCCC1)C(=O)N1CCCC1C(=O)NCCC1CCNCC1 [Example 54, HO2 CCH2 -D-Cha-Pro-4-NHCH2 CH2 -piperidine.HCl] | 140 ng/mL | 2.8 × 10^6 (L/mole) | 2,200 ng/mL | 3,300 ng/mL |
| N=C(N)N1CCC(CNC(=O)[C@@H]2CCCN2C(=O)[C@@H](CC2CCCCC2)NCC(=O)O)CC1 [Example 56, N-(carboxymethyl)-D-cyclohexylalanyl-N-[[1-(aminoiminomethyl)-hexahydropyridin-4-yl-]methyl]-L-prodimamide hydrochloride] | 5 ng/mL |  | 200 ng/mL | 160 ng/mL |
| N=C(N)N1CCC(CCNC(=O)[C@@H]2CCCN2C(=O)[C@@H](CC2CCCCC2)NCC(=O)O)CC1 [Example 57, HO2 CCH2 -D-Cha-Pro-4-NHCH2 CH2 -1-amidinopiperidine.HCl] | 14 ng/mL | 39 × 10^6 (L/mole) | 340 ng/mL | 360 ng/mL |
| Cl.O=C(O)CN[C@H](CC1CCCCC1)C(=O)N1CCC[C@H]1C(=O)NCC1=CCNCC1 [Example 58, HO2 CCH2 -D-Cha-Pro-4-NHCH2 -3,4-dehydro-piperidine.HCl] | 710 ng/mL | 0.60 × 10^6 (L/mole) |  |  |
| Cl.O=C(O)CN[C@H](CC1CCCCC1)C(=O)N1CCC[C@H]1C(=O)NCCC1=CCNCC1 [Example 59, HO2 CCH2 -D-Cha-Pro-4-NHCH2 CH2 -3,4-dehydro-piperidine.HCl] | 420 ng/mL | 1.10 × 10^6 (L/mole) | 7,000 ng/mL | 5,500 ng/mL |
| Cl.O=C(O)CN[C@H](CC1CCCCC1)C(=O)N1CCC[C@H]1C(=O)NCCCC1=CCNCC1 [Example 60, HO2 CCH2 -D-Cha-Pro-4-NHCH2 CH2 CH2 -3,4-dehydro-piperidine.HCl] | 3,200 ng/mL | 0.24 × 10^6 (L/mole) |  |  |
| N=C(N)N1CC=C(CNC(=O)[C@@H]2CCCN2C(=O)[C@@H](CC2CCCCC2)NCC(=O)O)CC1 [Example 70, N-(carboxymethyl)-D-cyclohexylalanyl-N-[[1-(aminoiminomethyl)-1,2,3,6-tetrahydropyridin-4-yl]methyl]-L-prolinamide hydrochloride] | 2 ng/mL |  | 180 ng/mL | 160 ng/mL |
| Cl.Nc1ccc(CCNC(=O)[C@@H]2CCCN2C(=O)[C@@H](CC2CCCCC2)NCC(=O)O)cn1 [Example 75, HO2 CCH2 -D-Cha-Pro-5-NHCH2 CH2 -2-aminopyridine.HCl] |  | 0.45 × 10^6 (L/mole) |  |  |
| NCC1CCC(CNC(=O)[C@@H]2CCCN2C(=O)[C@@H](CC2CCCCC2)NCC(=O)O)CC1 (stereo partly drawn) [Example 79, HO2 CCH2 -D-Cha-Pro-4-NHCH2 C6 H10 CH2 NH2.HCl] | 140 ng/mL |  | 2,400 ng/mL | 1,700 ng/mL |
| CCS(=O)(=O)N[C@H](CC1CCCCC1)C(=O)N1CCC[C@H]1C(=O)NCc1ccc(CN)cc1 [Example 81, EtSO2 -D-Cha-Pro-4-NHCH2 C6 H4 CH2 NH2.HCl] | 110 ng/mL |  | 2,700 ng/mL | 1,500 ng/mL |
| N=C(N)c1ccc(CNC(=O)[C@@H]2CCCN2C(=O)[C@@H](CCC2CCCCC2)NCC(=O)O)cc1 [Example 88, hydrochloride] | 4 ng/mL |  | 200 ng/mL | 100 ng/mL |
| CCC(CC)C(=O)N[C@@H](CCS(C)(=O)=O)C(=O)N1CCC[C@H]1C(=O)NCc1ccc(C(=N)N)cc1 [Example 91, (C2 H5)2 CHCO-Met(O2)-Pro-p-NHCH2 C6 H4 C(NH)NH2.HCl] | 63 ng/mL |  | 3,500 ng/mL | 3,000 ng/mL |
| CS(=O)(=O)CC(=O)N[C@H](CC1CCCCC1)C(=O)N1CCC[C@H]1C(=O)NCc1ccc(C(=N)N)cc1 [Example 92, (N-methylsulfonylacetyl)-L-cyclohexylalanyl-N-[[4-(aminoiminomethyl)phenyl]methyl]-L-prolinamide hydrochloride] | 8.9 ng/mL |  | 340 ng/mL | 210 ng/mL |
| (S-cis)-N-[[4-(amino iminomethyl)phenyl]methyl]-1-[N-(ethylsulfonyl)-D-phenylglycyl]-1H-indole- 2-carboxamide hydrochloride [Example 44] | 4 ng/mL |  | 170 ng/mL | 100 ng/mL |
